Assay results from patent US7897640B2 (priority 2003, dated 2011).
Marks after values point to notes of the source that are not given here.

Tests used:
[1] = system: duck hepatitis B virus (DHBV); test: pharmacotherapy test in DHBV infected ducklings, serum DHBV-DNA dot-blot; assay type: in vivo, Beijing ducklings
solubility = assay type: physicochemical
[2] = system: AZT-resistant strain HIV-1 018c; settings: PBMC, AZT-resistant HIV-1 018c
human T lymphocytes MT-4 = test: cytotoxicity by MTT in MT-4 culture; settings: MT-4 culture with HIV-1 IIIB, 96 hours
HIV-1 IIIB [3] = test: HIV-1 P24 antigen inhibition in MT-4 culture; settings: MT-4, HIV-1 IIIB
Procedure: MT-4 cell suspension was counted, then 100 μl of suspension (2×10^5 cells/ml) was seeded into 96-well cell culture plate, 50 μl liquor of 2× diluted medicament or 4-5× diluted positive medicament AZT (8 concentrations) was added, respectively, and 50 μl virus suspension with proper titer was add concurrently. Each dilution was repeated in 3 wells and cell control group and virus control group were established. They were incubated at 37° C., 5% CO2 saturated humidity incubator and the cytopathy was observed everyday. On the fourth day after administration (96 hours), the supernatants were sucked out and stored at −20° C. for measuring HIV-1-P24 antigen titer. Accordingly, the inhibition effect of medicament could be calculated, and the cells were dyed with MTT to measure the cytotoxicity.
The medicated cell supernatants infected with MT-4 were diluted after being thawed. HIV-1 P24 titer was measured according to the operation procedure described in HIV-1 P24 antigen kit.
[formula] 2.2.2 Reed & Muench Method for Calculating CC50 and EC50 of Medicament in Cell Culture
[formula] 2.2.3. Calculation Method of Selection Index (SI) of HIV-1 P24 Antigen in Cell Culture SI=CC50/EC50 3.

[4] = system: human peripheral blood mononuclear cell (PBMC); test: cytotoxicity by MTT in HIV-infected PBMC culture; settings: 96 hours
Procedure: 10 μl MTT dye (5 mg/ml) was added to each well, and then incubated at 37° C., 5% CO2 saturated humidity incubator for 4 hours. 100 μl 50% DMF-17% Triton X-100 destainer was added to each well and the mixtures were kept at 37° C. overnight. Then OD570nm values were measured at 570 nm with a luminometer to calculate the median cytotoxicity concentration of medicament (CC50).
The fresh normal human venous blood was taken and PBMC was separated using FiColl separation solution. The 1.5×10^5 cells/ml suspension prepared with the culture fluid containing PHA was seeded into the culture bottle and incubated in the incubator (37° C., 5% CO2) for 72 hours. The cells were collected with cell scrapers then were infected with the 10^−2 viral liquid of AZT-sensitive (018a) or AZT-resistant (018c) viral strain. After absorption for 2 hours, the non-absorbed viruses were washed with serum-free 1640 culture medium. The infected cells were prepared into 1×10^6 cells/ml with the culture fluid, and then were seeded into the 96-well culture board in 100 μl/well. At the same time, 100 μl liquor of 2× diluted AKJ-2 or 5× diluted positive control medicament AZT with different concentrations was added. The cell control group and virus control group were established. Four days (96 hours) after incubating under 37° C., 5% CO2, the supernatants were sucked out and stored at −20° C. to measure HIV-1-P24 antigen titer and calculate the inhibition effect of the medicament. The cells were dyed with MTT to measure the cytotoxicity.

[5] = system: AZT-sensitive strain HIV-1 018a; test: HIV-1 P24 antigen inhibition in PBMC, AZT-sensitive strain; settings: PBMC, AZT-sensitive HIV-1 018a
HIV-1 IIIB [6] = test: HIV-1 P24 antigen inhibition in chronically infected H9 cells
Procedure: HIV-1 P24 antigen titer was measured according to the operation procedures stated in HIV-1 P24 antigen kit.
100 μl (2×10^5 cells/ml) of H9 cells suspension was seeded into 96-well cell culture plate. Then, 100 μl liquor of 2× diluted medicament or 4-5× diluted positive AZT (8 concentrations) was added. Each dilution was repeated in three wells. The cell control group was established. The cells were incubated in the incubator (37° C., 5% CO2, saturated humidity) and the cytopathy was observed everyday. Four days (96 hours) after administration, the supernatants were sucked out and stored at −20° C. to measure HIV-1-P24 antigen titer. The inhibition effect of the medicament was determined. The cells were dyed with MTT to measure the cytotoxicity.
2.2.2 Reed & Muench Method for Calculating CC50 and EC50 of Medicament in Cell Culture
Calculation Method of Selection Index (SI) of HIV-1 P24 Antigen in Cell Culture SI=CC50/EC50 3.

[7] = system: human T lymphocytes H9 chronically infected with HIV-1 IIIB; test: cytotoxicity by MTT in H9 cells chronically infected with HIV-1 IIIB; settings: H9 cell chronically infected with HIV-1 IIIB, 96 hours

CC(C)=CC[C@H](OC(=O)C=C(C)C)C1=CC(=O)c2c(O)ccc(O)c2C1=O [AKJ, β,β-dimethyl-acryl-alkannin]
Serum DHBV-DNA OD490 value (X ± SD) ([1]; Lot I, 25 mg/kg oral bid x 10 days, P3 (third day after cessation)): 0.792 ± 0.13 | Serum DHBV-DNA level Inhibitory Rate (%) ([1]; Lot I, 25 mg/kg oral bid x 10 days, P3 vs T0): 5.43% | Serum DHBV-DNA OD490 value (X ± SD) ([1]; Lot I, 25 mg/kg oral bid x 10 days, T0 (day before administration)): 0.851 ± 0.15 | Serum DHBV-DNA OD490 value (X ± SD) ([1]; Lot I, 25 mg/kg oral bid x 10 days, T5): 0.767 ± 0.18 | Serum DHBV-DNA level Inhibitory Rate (%) ([1]; Lot I, 25 mg/kg oral bid x 10 days, T5 vs T0): 8.81% | Serum DHBV-DNA OD490 value (X ± SD) ([1]; Lot I, 25 mg/kg oral bid x 10 days, T10): 0.762 ± 0.15 | Serum DHBV-DNA level Inhibitory Rate (%) ([1]; Lot I, 25 mg/kg oral bid x 10 days, T10 vs T0): 8.73% | Serum DHBV-DNA OD490 value (X ± SD) ([1]; Lot I, 50 mg/kg oral bid x 10 days, P3 (third day after cessation)): 0.696 ± 0.05 | Serum DHBV-DNA level Inhibitory Rate (%) ([1]; Lot I, 50 mg/kg oral bid x 10 days, P3 vs T0): 32.39** % | Serum DHBV-DNA OD490 value (X ± SD) ([1]; Lot I, 50 mg/kg oral bid x 10 days, T0 (day before administration)): 1.082 ± 0.23 | Serum DHBV-DNA OD490 value (X ± SD) ([1]; Lot I, 50 mg/kg oral bid x 10 days, T5): 0.961 ± 0.23 | Serum DHBV-DNA level Inhibitory Rate (%) ([1]; Lot I, 50 mg/kg oral bid x 10 days, T5 vs T0): 9.16% | Serum DHBV-DNA OD490 value (X ± SD) ([1]; Lot I, 50 mg/kg oral bid x 10 days, T10): 0.680 ± 0.09 | Serum DHBV-DNA level Inhibitory Rate (%) ([1]; Lot I, 50 mg/kg oral bid x 10 days, T10 vs T0): 33.56** % | Serum DHBV-DNA OD490 value (X ± SD) ([1]; Lot I, 100 mg/kg oral bid x 10 days, P3 (third day after cessation)): 0.667 ± 0.22 | Serum DHBV-DNA level Inhibitory Rate (%) ([1]; Lot I, 100 mg/kg oral bid x 10 days, P3 vs T0): 44.91** % | Serum DHBV-DNA OD490 value (X ± SD) ([1]; Lot I, 100 mg/kg oral bid x 10 days, T0 (day before administration)): 1.207 ± 0.23 | Serum DHBV-DNA OD490 value (X ± SD) ([1]; Lot I, 100 mg/kg oral bid x 10 days, T5): 0.987 ± 0.26 | Serum DHBV-DNA level Inhibitory Rate (%) ([1]; Lot I, 100 mg/kg oral bid x 10 days, T5 vs T0): 17.86* % | Serum DHBV-DNA OD490 value (X ± SD) ([1]; Lot I, 100 mg/kg oral bid x 10 days, T10): 0.757 ± 0.19 | Serum DHBV-DNA level Inhibitory Rate (%) ([1]; Lot I, 100 mg/kg oral bid x 10 days, T10 vs T0): 37.09** % | Serum DHBV-DNA OD490 value (X ± SD) ([1]; Lot II, 25 mg/kg oral bid x 10 days, P3 (third day after cessation)): 1.092 ± 0.13 | Serum DHBV-DNA level Inhibitory Rate (%) ([1]; Lot II, 25 mg/kg oral bid x 10 days, P3 vs T0): −12.91% | Serum DHBV-DNA OD490 value (X ± SD) ([1]; Lot II, 25 mg/kg oral bid x 10 days, T0 (day before administration)): 1.005 ± 0.22 | Serum DHBV-DNA OD490 value (X ± SD) ([1]; Lot II, 25 mg/kg oral bid x 10 days, T5): 1.061 ± 0.08 | Serum DHBV-DNA level Inhibitory Rate (%) ([1]; Lot II, 25 mg/kg oral bid x 10 days, T5 vs T0): −8.66% | Serum DHBV-DNA OD490 value (X ± SD) ([1]; Lot II, 25 mg/kg oral bid x 10 days, T10): 0.928 ± 0.09 | Serum DHBV-DNA level Inhibitory Rate (%) ([1]; Lot II, 25 mg/kg oral bid x 10 days, T10 vs T0): 5.67% | Serum DHBV-DNA OD490 value (X ± SD) ([1]; Lot II, 50 mg/kg oral bid x 10 days, P3 (third day after cessation)): 1.140 ± 0.25 | Serum DHBV-DNA level Inhibitory Rate (%) ([1]; Lot II, 50 mg/kg oral bid x 10 days, P3 vs T0): 14.99% | Serum DHBV-DNA OD490 value (X ± SD) ([1]; Lot II, 50 mg/kg oral bid x 10 days, T0 (day before administration)): 1.375 ± 0.28 | Serum DHBV-DNA OD490 value (X ± SD) ([1]; Lot II, 50 mg/kg oral bid x 10 days, T5): 1.075 ± 0.14 | Serum DHBV-DNA level Inhibitory Rate (%) ([1]; Lot II, 50 mg/kg oral bid x 10 days, T5 vs T0): 20.22** % | Serum DHBV-DNA OD490 value (X ± SD) ([1]; Lot II, 50 mg/kg oral bid x 10 days, T10): 0.947 ± 0.13 | Serum DHBV-DNA level Inhibitory Rate (%) ([1]; Lot II, 50 mg/kg oral bid x 10 days, T10 vs T0): 27.55* % | Serum DHBV-DNA OD490 value (X ± SD) ([1]; Lot II, 100 mg/kg oral bid x 10 days, P3 (third day after cessation)): 0.875 ± 0.17 | Serum DHBV-DNA level Inhibitory Rate (%) ([1]; Lot II, 100 mg/kg oral bid x 10 days, P3 vs T0): 18.04* % | Serum DHBV-DNA OD490 value (X ± SD) ([1]; Lot II, 100 mg/kg oral bid x 10 days, T0 (day before administration)): 1.080 ± 0.21 | Serum DHBV-DNA OD490 value (X ± SD) ([1]; Lot II, 100 mg/kg oral bid x 10 days, T5): 0.872 ± 0.13 | Serum DHBV-DNA level Inhibitory Rate (%) ([1]; Lot II, 100 mg/kg oral bid x 10 days, T5 vs T0): 18.14** % | Serum DHBV-DNA OD490 value (X ± SD) ([1]; Lot II, 100 mg/kg oral bid x 10 days, T10): 0.670 ± 0.14 | Serum DHBV-DNA level Inhibitory Rate (%) ([1]; Lot II, 100 mg/kg oral bid x 10 days, T10 vs T0): 36.65** % | Serum DHBV-DNA OD490 value (X ± SD) ([1]; Lot III, 25 mg/kg oral bid x 10 days, P3 (third day after cessation)): 1.035 ± 0.21 | Serum DHBV-DNA level Inhibitory Rate (%) ([1]; Lot III, 25 mg/kg oral bid x 10 days, P3 vs T0): 16.14* % | Serum DHBV-DNA OD490 value (X ± SD) ([1]; Lot III, 25 mg/kg oral bid x 10 days, T0 (day before administration)): 1.263 ± 0.35 | Serum DHBV-DNA OD490 value (X ± SD) ([1]; Lot III, 25 mg/kg oral bid x 10 days, T5): 1.079 ± 0.23 | Serum DHBV-DNA level Inhibitory Rate (%) ([1]; Lot III, 25 mg/kg oral bid x 10 days, T5 vs T0): 11.66* % | Serum DHBV-DNA OD490 value (X ± SD) ([1]; Lot III, 25 mg/kg oral bid x 10 days, T10): 1.076 ± 0.16 | Serum DHBV-DNA level Inhibitory Rate (%) ([1]; Lot III, 25 mg/kg oral bid x 10 days, T10 vs T0): 11.96* % | Serum DHBV-DNA OD490 value (X ± SD) ([1]; Lot III, 50 mg/kg oral bid x 10 days, P3 (third day after cessation)): 1.368 ± 0.11 | Serum DHBV-DNA level Inhibitory Rate (%) ([1]; Lot III, 50 mg/kg oral bid x 10 days, P3 vs T0): 16.59** % | Serum DHBV-DNA OD490 value (X ± SD) ([1]; Lot III, 50 mg/kg oral bid x 10 days, T0 (day before administration)): 1.649 ± 0.13 | Serum DHBV-DNA OD490 value (X ± SD) ([1]; Lot III, 50 mg/kg oral bid x 10 days, T5): 1.459 ± 0.28 | Serum DHBV-DNA level Inhibitory Rate (%) ([1]; Lot III, 50 mg/kg oral bid x 10 days, T5 vs T0): 11.03* % | Serum DHBV-DNA OD490 value (X ± SD) ([1]; Lot III, 50 mg/kg oral bid x 10 days, T10): 1.411 ± 0.31 | Serum DHBV-DNA level Inhibitory Rate (%) ([1]; Lot III, 50 mg/kg oral bid x 10 days, T10 vs T0): 13.00% | Serum DHBV-DNA OD490 value (X ± SD) ([1]; Lot III, 100 mg/kg oral bid x 10 days, P3 (third day after cessation)): 1.146 ± 0.56 | Serum DHBV-DNA level Inhibitory Rate (%) ([1]; Lot III, 100 mg/kg oral bid x 10 days, P3 vs T0): 18.34% | Serum DHBV-DNA OD490 value (X ± SD) ([1]; Lot III, 100 mg/kg oral bid x 10 days, T0 (day before administration)): 1.474 ± 0.38 | Serum DHBV-DNA OD490 value (X ± SD) ([1]; Lot III, 100 mg/kg oral bid x 10 days, T5): 1.351 ± 0.30 | Serum DHBV-DNA level Inhibitory Rate (%) ([1]; Lot III, 100 mg/kg oral bid x 10 days, T5 vs T0): 2.76% | Serum DHBV-DNA OD490 value (X ± SD) ([1]; Lot III, 100 mg/kg oral bid x 10 days, T10): 1.046 ± 0.42 | Serum DHBV-DNA level Inhibitory Rate (%) ([1]; Lot III, 100 mg/kg oral bid x 10 days, T10 vs T0): 28.41** % | solubility in DMSO (solubility; DMSO): soluble | solubility in water (solubility; water): insoluble | Selection index (CC50/EC50) [2]: 5.75 ± 0.67 | Median effective concentration (EC50), HIV-1 P24 antigen ([2]; 96 hours): 0.97 ± 0.13 mg/L | Median cytotoxicity concentration (CC50) (human T lymphocytes MT-4): 0.31 ± 0.04 mg/L | Selection index (CC50/EC50) (HIV-1 IIIB [3]): 4.49 ± 0.94 | Median effective concentration (EC50), HIV-1 P24 antigen (HIV-1 IIIB [3]; 96 hours): 0.07 ± 0.01 mg/L | Median cytotoxicity concentration (CC50) ([4]; PBMC infected with AZT-resistant HIV-1 018c): 5.55 ± 0.136 mg/L | Median cytotoxicity concentration (CC50) ([4]; PBMC infected with AZT-sensitive HIV-1 018a): 5.66 ± 0.28 mg/L | Selection index (CC50/EC50) [5]: 5.12 ± 0.33 | Median effective concentration (EC50), HIV-1 P24 antigen ([5]; 96 hours): 1.11 ± 0.11 mg/L | Median effective concentration (EC50), HIV-1 P24 antigen (HIV-1 IIIB [6]; H9 cell chronically infected with HIV-1 IIIB, 96 hours): >0.25 ± 0 mg/L | inhibition effect on HIV-1 IIIB chronically-infected H9 cells (HIV-1 IIIB [6]; two lots of tests): no inhibition effect | Median cytotoxicity concentration (CC50) [7]: 1.915 ± 0.09 mg/L
